For orientation: IC50 means the concentration at which inhibition is half-maximal. High values mean weaker potency in that assay, low ones greater potency in that assay.

Data on 27 compounds can be found in patent publication US20100015141A1, “4-PHENOXY-6-ARYL-1H-PYRAZOLO[3,4-D]PYRIMIDINE AND N-ARYL-6-ARYL-1H-PYRAZOLO[3,4-D]PYRIMIDIN-4-AMINE COMPOUNDS, THEIR USE AS MTOR KINASE AND PI3 KINASE INHIBITORS, AND THEIR SYNTHESES” (Wyeth, priority 2008, published 2010).

Holding throughout (format): biochemical
For one experiment, the target named is PI3K-γ (Homo sapiens, UniProt P48736). The experiment is described as follows: PI3K-gamma fluorescence polarization assay. The conditions noted are these: 20 μM PIP2, 25 μM ATP. The method, then:
(§1) The reaction buffer was 20 mM HEPES pH7.5, 2 mM MgCl2, 0.05% CHAPS, and 0.01% βME (added fresh). The substrate solution was 40 μM PIP2 (diC8, Echelon, Salt Lake City Utah cat #P-4508, 1 mM in water) and 50 μM ATP in the reaction buffer. Nunc 384-well black polypropylene fluorescent plates were used for PI3K assays. The assay is run by putting 9.5 μl of freshly diluted enzyme in the reaction buffer per well, adding 0.5 μl of diluted drug or DMSO, and mixing. Then 10 μl of the substrate solution is added to each well to start the reaction. A final concentration of 20 μM PIP2 and 25 μM ATP in the reaction was used. Reactions were allowed to proceed for 30-60 minutes at room temperature. After 30-60 minutes, 20 μl of a solution of 10 nM TAMRA detector (Red detector probe-Echelon) and 2.5 uM of GST-murineGRP (1.5 mg/ml in 17% glycerol) was added per well to stop the reaction. The resulting solution was mixed well and allowed to stand for 90-110 minutes before reading plate. Assay Plates were read on Perkin-Elmer Envision plate readers with appropriate filters for Tamra [BODIPY-TMRI(1,3,4,5)P4]. Data obtained were used to calculate enzymatic activity and enzyme inhibition by inhibitor compounds. It is important to keep Red probe solutions dark. This procedure is adapted from Echelon Biosciences Inc procedure for their PI3-Kinase fluorescence polarization activity Assay kit Product number K-1100.

The target of another experiment is mTOR (Homo sapiens, UniProt P42345). The experiment is described as follows: mTOR enzyme assay (DELFIA, His6-S6K phosphorylation). The conditions noted are these: 100 μM ATP, 1.25 μM His6-S6K. More on the design: FLAG.
In the next experiment the target is PI3K-α (Homo sapiens, UniProt P42336). The experiment is described as follows: PI3K-alpha fluorescence polarization assay. The conditions noted are these: 20 μM PIP2, 25 μM ATP. The method, then: as §1
Sequence of PI3K-α (P42336 whole entry, species assumed): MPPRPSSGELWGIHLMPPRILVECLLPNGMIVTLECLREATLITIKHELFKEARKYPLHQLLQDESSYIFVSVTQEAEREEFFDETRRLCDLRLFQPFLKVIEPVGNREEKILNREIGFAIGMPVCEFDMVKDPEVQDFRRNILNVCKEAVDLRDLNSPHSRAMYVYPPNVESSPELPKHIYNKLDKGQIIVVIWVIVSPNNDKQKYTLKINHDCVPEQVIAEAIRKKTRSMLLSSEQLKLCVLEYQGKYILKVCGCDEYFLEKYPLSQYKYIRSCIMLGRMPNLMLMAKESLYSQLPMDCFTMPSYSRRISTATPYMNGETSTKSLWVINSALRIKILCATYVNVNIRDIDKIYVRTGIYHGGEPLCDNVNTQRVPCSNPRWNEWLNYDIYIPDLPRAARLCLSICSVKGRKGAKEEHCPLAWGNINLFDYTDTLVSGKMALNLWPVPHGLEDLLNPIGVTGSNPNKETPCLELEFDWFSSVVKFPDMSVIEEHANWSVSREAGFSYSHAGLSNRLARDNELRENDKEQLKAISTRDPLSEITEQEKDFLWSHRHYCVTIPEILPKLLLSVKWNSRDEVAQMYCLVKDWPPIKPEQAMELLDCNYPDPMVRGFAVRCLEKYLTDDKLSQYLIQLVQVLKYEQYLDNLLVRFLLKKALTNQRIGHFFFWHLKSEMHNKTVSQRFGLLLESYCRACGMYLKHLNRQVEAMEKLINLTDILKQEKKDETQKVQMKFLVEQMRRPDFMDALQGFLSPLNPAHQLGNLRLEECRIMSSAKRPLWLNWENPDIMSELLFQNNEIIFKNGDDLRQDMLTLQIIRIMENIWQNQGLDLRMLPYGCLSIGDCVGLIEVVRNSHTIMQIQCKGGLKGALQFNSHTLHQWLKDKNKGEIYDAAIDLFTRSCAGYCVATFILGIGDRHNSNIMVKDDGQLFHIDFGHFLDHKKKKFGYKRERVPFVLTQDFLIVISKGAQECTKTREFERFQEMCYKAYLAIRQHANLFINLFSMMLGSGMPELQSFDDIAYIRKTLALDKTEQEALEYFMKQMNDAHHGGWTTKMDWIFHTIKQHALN
Sequence of PI3K-α (P27986 whole entry partner, species assumed): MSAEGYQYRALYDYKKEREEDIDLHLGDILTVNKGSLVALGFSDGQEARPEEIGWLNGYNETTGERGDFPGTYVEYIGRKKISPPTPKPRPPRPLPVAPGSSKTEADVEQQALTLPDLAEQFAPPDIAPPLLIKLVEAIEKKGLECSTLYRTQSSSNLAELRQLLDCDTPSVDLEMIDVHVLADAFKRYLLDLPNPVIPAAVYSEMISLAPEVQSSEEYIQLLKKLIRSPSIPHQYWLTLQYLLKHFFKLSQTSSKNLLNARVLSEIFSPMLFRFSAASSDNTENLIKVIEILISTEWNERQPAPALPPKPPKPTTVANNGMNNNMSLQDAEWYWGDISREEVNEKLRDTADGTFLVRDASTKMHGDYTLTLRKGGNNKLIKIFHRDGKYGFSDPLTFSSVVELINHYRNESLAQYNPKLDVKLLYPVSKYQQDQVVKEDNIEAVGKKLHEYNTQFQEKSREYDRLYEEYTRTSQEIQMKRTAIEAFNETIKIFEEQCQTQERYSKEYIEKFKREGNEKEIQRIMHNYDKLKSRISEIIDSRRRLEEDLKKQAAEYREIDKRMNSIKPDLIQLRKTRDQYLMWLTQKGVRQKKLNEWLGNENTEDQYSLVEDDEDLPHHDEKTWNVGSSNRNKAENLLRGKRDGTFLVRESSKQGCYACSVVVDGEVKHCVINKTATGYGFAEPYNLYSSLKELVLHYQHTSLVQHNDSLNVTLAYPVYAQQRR

Some results are limits rather than exact numbers.

Sequence of PI3K-γ (P48736 whole entry, species assumed): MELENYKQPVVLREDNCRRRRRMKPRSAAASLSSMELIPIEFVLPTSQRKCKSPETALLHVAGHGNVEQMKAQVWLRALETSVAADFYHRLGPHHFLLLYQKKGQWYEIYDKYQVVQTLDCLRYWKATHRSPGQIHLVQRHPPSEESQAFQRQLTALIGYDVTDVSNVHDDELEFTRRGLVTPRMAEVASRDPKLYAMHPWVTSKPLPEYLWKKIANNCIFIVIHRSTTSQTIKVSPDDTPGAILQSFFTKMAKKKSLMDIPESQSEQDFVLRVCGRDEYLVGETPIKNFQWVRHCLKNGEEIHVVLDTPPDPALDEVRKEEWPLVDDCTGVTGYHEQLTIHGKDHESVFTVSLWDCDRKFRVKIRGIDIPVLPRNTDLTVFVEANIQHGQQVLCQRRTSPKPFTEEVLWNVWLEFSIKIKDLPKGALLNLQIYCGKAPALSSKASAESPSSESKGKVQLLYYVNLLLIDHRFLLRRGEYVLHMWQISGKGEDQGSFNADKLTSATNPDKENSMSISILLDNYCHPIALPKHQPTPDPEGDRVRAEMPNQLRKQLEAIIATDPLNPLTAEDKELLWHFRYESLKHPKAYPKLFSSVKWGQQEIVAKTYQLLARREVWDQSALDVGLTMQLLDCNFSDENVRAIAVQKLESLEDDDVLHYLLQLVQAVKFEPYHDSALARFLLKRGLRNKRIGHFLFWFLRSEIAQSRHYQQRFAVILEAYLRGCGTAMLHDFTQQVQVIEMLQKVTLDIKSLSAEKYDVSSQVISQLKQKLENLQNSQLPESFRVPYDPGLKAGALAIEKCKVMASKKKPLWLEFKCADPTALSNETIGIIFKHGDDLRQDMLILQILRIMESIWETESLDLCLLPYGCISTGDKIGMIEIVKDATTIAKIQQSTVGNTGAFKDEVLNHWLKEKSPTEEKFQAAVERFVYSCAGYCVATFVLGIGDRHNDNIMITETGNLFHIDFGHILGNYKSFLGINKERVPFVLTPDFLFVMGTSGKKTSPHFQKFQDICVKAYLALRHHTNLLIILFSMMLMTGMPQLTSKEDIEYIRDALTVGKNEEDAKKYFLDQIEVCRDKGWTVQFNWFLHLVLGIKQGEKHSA

With `Cn1ncc2c(Nc3ccc(C(N)=O)cc3)nc(-c3ccccc3)nc21` [Example 11, 4-[(1-methyl-6-phenyl-1H-pyrazolo[3,4-d]pyrimidin-4-yl)amino]benzamide], the IC50 at PI3K-γ came out at 1580 nM; against mTOR it was 950 nM; against PI3K-α, 167 nM.

Turning to `CN(c1ccc(C(N)=O)cc1)c1nc(-c2ccccc2)nc2c1cnn2C` [Example 34, 4-[methyl(1-methyl-6-phenyl-1H-pyrazolo[3,4-d]pyrimidin-4-yl)amino]benzamide], the values for the IC50 on PI3K-γ, at mTOR and at PI3K-α were over 10000 nM, 16000 nM and 6700 nM, respectively.

Turning to `CC(=O)Nc1ccc(N(C)c2nc(-c3ccccc3)nc3c2cnn3C)cc1` [Example 35, N-{4-[methyl(1-methyl-6-phenyl-1H-pyrazolo[3,4-d]pyrimidin-4-yl)amino]phenyl}acetamide], the values for the half-inhibitory concentration (IC50) on PI3K-γ, against mTOR and at PI3K-α were 7470 nM, 4700 nM and 1500 nM, respectively.

On to `COc1cccc(-c2nc(Oc3ccc4[nH]ccc4c3)c3cnn(C)c3n2)c1` [Example 38, 4-(1H-indol-5-yloxy)-6-(3-methoxyphenyl)-1-methyl-1H-pyrazolo[3,4-d]pyrimidine], for which the IC50 at PI3K-γ is 1140 nM; on mTOR, 2500 nM; against PI3K-α, 298 nM.

As for `COc1ccc(-c2nc(Oc3ccc4[nH]ccc4c3)c3cnn(C)c3n2)cc1OC` [Example 39, 6-(3,4-dimethoxyphenyl)-4-(1H-indol-5-yloxy)-1-methyl-1H-pyrazolo[3,4-d]pyrimidine], the half-maximal inhibitory concentration (IC50) against PI3K-γ worked out at 118 nM; against mTOR it was 2800 nM; at PI3K-α it was 160 nM.

For the compound `CN(C)c1ccc(-c2nc(Oc3ccc4[nH]ccc4c3)c3cnn(C)c3n2)cc1` [Example 40, 4-[4-(1H-indol-5-yloxy)-1-methyl-1H-pyrazolo[3,4-d]pyrimidin-6-yl]-N,N-dimethylaniline], the concentration for half-maximal inhibition (IC50) was over 10000 nM against PI3K-γ and 3780 nM against PI3K-α.

For `Cn1ncc2c(Oc3ccc4[nH]ccc4c3)nc(-c3cccnc3)nc21` [Example 41, 4-(1H-indol-5-yloxy)-1-methyl-6-pyridin-3-yl-1H-pyrazolo[3,4-d]pyrimidine], the IC50 was found to be 428 nM against PI3K-γ, 7200 nM at mTOR and 215 nM against PI3K-α.

As for `Cn1ncc2c(Oc3ccc4[nH]ccc4c3)nc(-c3cccc(C(F)(F)F)c3)nc21` [Example 42, 4-(1H-indol-5-yloxy)-1-methyl-6-[3-(trifluoromethyl)phenyl]-1H-pyrazolo[3,4-d]pyrimidine], the results for the concentration for half-maximal inhibition (IC50) against PI3K-γ and on PI3K-α were 956 nM and 1210 nM, respectively.

`Cn1ncc2c(Oc3ccc4[nH]ccc4c3)nc(-c3cccc(C#N)c3)nc21` [Example 43, 3-[4-(1H-indol-5-yloxy)-1-methyl-1H-pyrazolo[3,4-d]pyrimidin-6-yl]benzonitrile]: the figures for the 50% inhibitory concentration (IC50) against PI3K-γ, on mTOR and at PI3K-α were 1610 nM, 8400 nM and 598 nM, respectively.

For `Cn1ncc2c(Oc3ccc4[nH]ccc4c3)nc(-c3cccc(-c4ccccc4)c3)nc21` [Example 44, 6-biphenyl-3-yl-4-(1H-indol-5-yloxy)-1-methyl-1H-pyrazolo[3,4-d]pyrimidine], the values for the half-inhibitory concentration (IC50) on PI3K-γ and at PI3K-α were over 10000 nM and 2870 nM, respectively.

Regarding `COc1cccc(-c2nc(Oc3ccc(OC)c(OC)c3)c3cnn(C)c3n2)c1` [Example 45, 4-(3,4-dimethoxyphenoxy)-6-(3-methoxyphenyl)-1-methyl-1H-pyrazolo[3,4-d]pyrimidine], the values for the IC50 against PI3K-γ, against mTOR and on PI3K-α were 1290 nM, over 20000 nM and 653 nM, respectively.

As for `COc1ccc(Oc2nc(-c3ccc(N(C)C)cc3)nc3c2cnn3C)cc1OC` [Example 47, 4-[4-(3,4-dimethoxyphenoxy)-1-methyl-1H-pyrazolo[3,4-d]pyrimidin-6-yl]-N,N-dimethylaniline], the IC50 at PI3K-γ was over 10000 nM; on PI3K-α, 6040 nM.

On to `CC(=O)Nc1ccc(Oc2nc(-c3ccc(N(C)C)cc3)nc3c2cnn3C)cc1` [Example 51, N-[4-({6-[4-(dimethylamino)phenyl]-1-methyl-1H-pyrazolo[3,4-d]pyrimidin-4-yl}oxy)phenyl]acetamide], for which the figures for the IC50 against PI3K-γ and on PI3K-α were over 10000 nM and 4960 nM, respectively.

Turning to `CC(=O)Nc1ccc(Oc2nc(-c3cccc(C(F)(F)F)c3)nc3c2cnn3C)cc1` [Example 52, N-[4-({1-methyl-6-[3-(trifluoromethyl)phenyl]-1H-pyrazolo[3,4-d]pyrimidin-4-yl}oxy)phenyl]acetamide], the values for the IC50 at PI3K-γ and on PI3K-α were 10500 nM and 1330 nM, respectively.

As to `CC(=O)Nc1ccc(Oc2nc(-c3cccc(-c4ccccc4)c3)nc3c2cnn3C)cc1` [Example 53, N-{4-[(6-biphenyl-3-yl-1-methyl-1H-pyrazolo[3,4-d]pyrimidin-4-yl)oxy]phenyl}acetamide], the results for the IC50 against PI3K-γ and against PI3K-α were over 10000 nM and 4620 nM, respectively.

On to `CC(=O)Nc1ccc(Oc2nc(-c3ccc(O)cc3)nc3c2cnn3C)cc1` [Example 54, N-(4-{[6-(4-hydroxyphenyl)-1-methyl-1H-pyrazolo[3,4-d]pyrimidin-4-yl]oxy}phenyl)acetamide], for which the IC50 against PI3K-γ worked out at 398 nM; at mTOR it was 4900 nM; against PI3K-α, 266 nM.

Take `CC(=O)Nc1ccc(Oc2nc(-c3ccc4[nH]ccc4c3)nc3c2cnn3C)cc1` [Example 55, N-(4-{[6-(1H-indol-5-yl)-1-methyl-1H-pyrazolo[3,4-d]pyrimidin-4-yl]oxy}phenyl)acetamide]: the IC50 at PI3K-γ came out at 600 nM; against mTOR it was 570 nM; on PI3K-α it was 387 nM.

With `Cn1ncc2c(Oc3ccc4[nH]ccc4c3)nc(-c3ccc(-c4ccccc4)cc3)nc21` [Example 56, 6-biphenyl-4-yl-4-(1H-indol-5-yloxy)-1-methyl-1H-pyrazolo[3,4-d]pyrimidine], the values for the concentration for half-maximal inhibition (IC50) at PI3K-γ, against mTOR and against PI3K-α were over 10000 nM, 16000 nM and 11500 nM, respectively.

Take `COc1ccc2cc(-c3nc(Oc4ccc5[nH]ccc5c4)c4cnn(C)c4n3)ccc2c1` [Example 57, 4-(1H-indol-5-yloxy)-6-(6-methoxy-2-naphthyl)-1-methyl-1H-pyrazolo[3,4-d]pyrimidine]: the 50% inhibitory concentration (IC50) at PI3K-γ is over 10000 nM; on mTOR it was 12000 nM; against PI3K-α, 3220 nM.

Take `CC(C)c1ccc(-c2nc(Oc3ccc4[nH]ccc4c3)c3cnn(C)c3n2)cc1` [Example 58, 4-(1H-indol-5-yloxy)-6-(4-isopropylphenyl)-1-methyl-1H-pyrazolo[3,4-d]pyrimidine]: the figures for the half-inhibitory concentration (IC50) against PI3K-γ, against mTOR and at PI3K-α were 10600 nM, over 20000 nM and 3800 nM, respectively.

On to `Cn1cc(-c2nc(Oc3ccc4[nH]ccc4c3)c3cnn(C)c3n2)cn1` [Example 59, 4-(1H-indol-5-yloxy)-1-methyl-6-(1-methyl-1H-pyrazol-4-yl)-1H-pyrazolo[3,4-d]pyrimidine], for which the values for the IC50 against PI3K-γ, against mTOR and on PI3K-α were 2510 nM, over 20000 nM and 2870 nM, respectively.

As to `Cn1ncc2c(Nc3ccc(C(N)=O)cc3)nc(-c3ccc(-c4ccccc4)cc3)nc21` [Example 60, 4-[(6-biphenyl-4-yl-1-methyl-1H-pyrazolo[3,4-d]pyrimidin-4-yl)amino]benzamide], the 50% inhibitory concentration (IC50) was over 10000 nM against PI3K-γ, over 20000 nM on mTOR and 8550 nM against PI3K-α.

Turning to `CC(C)c1ccc(-c2nc(Nc3ccc(C(N)=O)cc3)c3cnn(C)c3n2)cc1` [Example 61, 4-{[6-(4-isopropylphenyl)-1-methyl-1H-pyrazolo[3,4-d]pyrimidin-4-yl]amino}benzamide], the IC50 was over 10000 nM against PI3K-γ, over 20000 nM against mTOR and 2460 nM at PI3K-α.

As to `Cn1cc(-c2nc(Nc3ccc(C(N)=O)cc3)c3cnn(C)c3n2)cn1` [Example 62, 4-{[1-methyl-6-(1-methyl-1H-pyrazol-4-yl)-1H-pyrazolo[3,4-d]pyrimidin-4-yl]amino}benzamide], the half-maximal inhibitory concentration (IC50) came out at 1590 nM on PI3K-γ, 4800 nM on mTOR and 603 nM against PI3K-α.

As for `Cn1ncc2c(Nc3ccc(C(N)=O)cc3)nc(-c3ccoc3)nc21` [Example 65, 4-{[6-(3-furyl)-1-methyl-1H-pyrazolo[3,4-d]pyrimidin-4-yl]amino}benzamide], the half-inhibitory concentration (IC50) against PI3K-γ was determined as 1710 nM; on mTOR it was 1300 nM; on PI3K-α, 314 nM.

Regarding `Cn1ncc2c(Oc3ccc4[nH]ccc4c3)nc(-c3cccc(Cl)c3)nc21` [Example 66, 6-(3-chlorophenyl)-4-(1H-indol-5-yloxy)-1-methyl-1H-pyrazolo[3,4-d]pyrimidine], the IC50 on PI3K-γ is 1160 nM; on mTOR, over 20000 nM; against PI3K-α it was 762 nM.

Take `Cn1ncc2c(Oc3ccc4[nH]ccc4c3)nc(-c3cccc([N+](=O)[O-])c3)nc21` [Example 67, 4-(1H-indol-5-yloxy)-1-methyl-6-(3-nitrophenyl)-1H-pyrazolo[3,4-d]pyrimidine]: the half-inhibitory concentration (IC50) stood at 1260 nM against PI3K-γ, 16000 nM against mTOR and 660 nM at PI3K-α.
